Literature values as cited in US20240279190A1, “COMPOUNDS FOR MODULATING PLATELET-TYPE 12-(S)-LIPOXYGENASE AND METHODS OF USE FOR SAME” (The Regents of The University of California, priority 2021, published 2024).

Test system: human islets
Settings: 10 μM; different batches of human islets; cited from earlier work

ML355
GSIS effect in a similar experiment: comparable results were observed
